One assay has as its target T1, human PDHK1 (hPDHK1) (Homo sapiens, UniProt Q15118).
T1 construct: made in house; host or cells: Escherichia coli BL21(DE3), pET17b vector
In words: Inhibitory action of PDHK1 activity in vitro (residual PDH activity after kinase reaction). The class given is biochemical. The following applies: PDH/hPDHK1 complex, 45 min kinase reaction at room temperature. Here is the method: The inhibitory action of PDHK activity was assessed indirectly by measuring the residual PDH activity after kinase reaction in the presence of a test compound.
In the case of human PDHK1 (hPDHK1, Genbank Accession No. L42450.1), a 1.3 kbp fragment encoding this protein was isolated from human liver cDNA by polymerase chain reaction (PCR). Modified hPDHK1 cDNA wherein FLAG-Tag sequence was added to the N terminus was prepared by PCR and cloned into a vector (pET17b-Novagen). The recombinant construct was transformed into Escherichia coli (DH5α-TOYOBO). The recombinant clones were identified, and plasmid DNA was isolated and subjected to the DNA sequence analysis. One clone which had the expected nucleic acid sequence was selected for expression work. […]
Then, 10 μL of substrates (5 mmol/L sodium pyruvate, 5 mmol/L Coenzyme A, 12 mmol/L NAD, 5 mmol/L thiamin pyrophosphate, diluted with buffer) were added. The mixture was incubated at room temperature for 90 min, and the residual PDH activity was measured.
2.5 The absorbance at 340 nm before and after PDH reaction was measured using a microplate reader to detect NADH produced by the PDH reaction. The hPDHK1 inhibition rate (%) of the test compound was calculated from the formula [{(PDH activity of the test compound−PDH activity of control)/PDH activity of blank−PDH activity of control)}×100].

Assay [1] is described as follows: Effect of repeated administration on HbA1c in ZDF rats. The class given is in vivo, Zucker Diabetic Fatty rats. The conditions noted are these: 1 mg/kg oral once daily, day 27 of administration, vehicle 4.4 ± 0.4, p < 0.05 vs. vehicle. Here is the method: Zucker Diabetic Fatty rats (male, 7-week-old, CHARLES RIVER LABORATORIES JAPAN INC.), an animal model for type 2 diabetes, given a purified diet (5.9% fat diet, Oriental Yeast Co., Ltd.) were allocated to the vehicle group and the test compound groups so that no bias occurred in the plasma glucose and insulin levels, HbA1c levels and body weights. Repeated oral doses of the test compound (1 mg/kg/5 mL) were administered to the rats once daily at 3 hr before the dark period. A 0.5% aqueous methylcellulose solution was orally administered in the same manner to the rats of the vehicle group. On day 27 of administration, blood samples were collected from the tail vein and HbA1c level (%) was measured. Statistical analysis was performed by Dunnett's test. Values of p<0.05 were considered statistically significant.

Experimental findings from patent US20150018403A1, “FLUORENE-AMIDE COMPOUNDS AND PHARMACEUTICAL USE THEREOF” (JAPAN TOBACCO INC., priority 2013, published 2015) are described below.

T1 sequence (Q15118 29-436): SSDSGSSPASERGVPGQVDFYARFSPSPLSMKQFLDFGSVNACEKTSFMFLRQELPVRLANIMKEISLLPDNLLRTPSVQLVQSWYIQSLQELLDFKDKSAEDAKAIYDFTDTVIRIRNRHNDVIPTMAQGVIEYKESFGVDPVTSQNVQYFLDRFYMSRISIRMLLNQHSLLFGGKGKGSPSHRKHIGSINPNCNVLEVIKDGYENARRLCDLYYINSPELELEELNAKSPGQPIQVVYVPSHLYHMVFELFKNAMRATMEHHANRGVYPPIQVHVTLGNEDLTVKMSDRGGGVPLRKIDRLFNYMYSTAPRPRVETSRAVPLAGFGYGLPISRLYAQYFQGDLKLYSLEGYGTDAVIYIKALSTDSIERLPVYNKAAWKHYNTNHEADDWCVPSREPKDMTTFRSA

In the case of `C[C@H](O)COc1cc(-c2cnn(C(C)(C)C(N)=O)c2)c2c(c1)[C@@](O)(C(F)(F)F)c1ccccc1-2` [compound (2), 2-(4-{(9R)-9-hydroxy-2-[(2S)-2-hydroxypropoxy]-9-(trifluoromethyl)-9H-fluoren-4-yl}-1H-pyrazol-1-yl)-2-methylpropanamide], on human PDHK1 (hPDHK1), inhibition was half-maximal at 5.1 nM (IC50). Also, the “HbA1c (%)” value in assay [1] was found to be 3.9 ± 0.5 %.

By IC50 is commonly meant the point on the concentration scale where inhibition reaches its midpoint. High values mean weaker potency in that assay, low ones greater potency in that assay.
